Laboratory results: ChEMBL document CHEMBL1201861, “Genomics of Drug Sensitity in Cancer screening data, Wellcome Trust Sanger Institute”

Key:
Test in all cases: cells
Assay type in all cases: functional, cell-based
Conditions in all cases: Homo sapiens
NCI-H810 = test system: NCI-H810;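 further: IC50 reflects inhibition of cancer cell line growth, read out with a cell viability assay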
Description: SANGER: Inhibition of human NCI-H810 cell growth in a cell viability assay.

EFO-21 = test system: EFO-21;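 further: growth inhibition of EFO-21 cells measured with a viability assay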
Description: SANGER: Inhibition of human EFO-21 cell growth in a cell viability assay.

HN = test system: HN
Description: SANGER: Inhibition of human HN cell growth in a cell viability assay.

HSC-2 = test system: HSC-2;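 further: growth inhibition of human HSC-2 cells, read out by a cell viability assay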
Description: SANGER: Inhibition of human HSC-2 cell growth in a cell viability assay.

Daoy = test system: Daoy;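 further: daoy cell growth inhibition, read out as cell viability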
Description: SANGER: Inhibition of human Daoy cell growth in a cell viability assay.

ME-180 = test system: ME-180;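 further: cell viability assay measuring growth inhibition of ME-180 cells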
Description: SANGER: Inhibition of human ME-180 cell growth in a cell viability assay.

HT-29 = test system: HT-29;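 further: growth inhibition of human HT-29 cells, read out by a cell viability assay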
Description: SANGER: Inhibition of human HT-29 cell growth in a cell viability assay.

NCI-H1755 = test system: NCI-H1755;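 further: cell viability readout used to measure growth inhibition of NCI-H1755 cells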
Description: SANGER: Inhibition of human NCI-H1755 cell growth in a cell viability assay.

SNU-387 = test system: SNU-387
Description: SANGER: Inhibition of human SNU-387 cell growth in a cell viability assay.

COLO-678 = test system: COLO-678
Description: SANGER: Inhibition of human COLO-678 cell growth in a cell viability assay.

KOSC-2 = test system: KOSC-2;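 further: growth inhibition of KOSC-2 cells, read out by a cell viability assay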
Description: SANGER: Inhibition of human KOSC-2 cell growth in a cell viability assay.

CAPAN-1 = test system: CAPAN-1;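 further: growth suppression of CAPAN-1 cells, read out by a cell viability assay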
Description: SANGER: Inhibition of human CAPAN-1 cell growth in a cell viability assay.

YAPC = test system: YAPC;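 further: growth inhibition of YAPC cells, measured with a cell viability assay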
Description: SANGER: Inhibition of human YAPC cell growth in a cell viability assay.

ACHN = test system: ACHN;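 further: cell viability read-out used to gauge how strongly growth of human ACHN cells is suppressed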
Description: SANGER: Inhibition of human ACHN cell growth in a cell viability assay.

OAW-28 = test system: OAW-28;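 further: growth inhibition of OAW-28 cells, read out with a cell viability assay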
Description: SANGER: Inhibition of human OAW-28 cell growth in a cell viability assay.

SW1710 = test system: SW1710;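 further: growth inhibition of SW1710 cells, determined with a cell viability assay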
Description: SANGER: Inhibition of human SW1710 cell growth in a cell viability assay.

CAL-51 = test system: CAL-51;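 further: human CAL-51 cell line, growth inhibition read out via a cell viability assay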
Description: SANGER: Inhibition of human CAL-51 cell growth in a cell viability assay.

NCI-H358 = test system: NCI-H358;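 further: growth inhibition of NCI-H358 human cells, read out with a cell viability assay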
Description: SANGER: Inhibition of human NCI-H358 cell growth in a cell viability assay.

RERF-LC-MS = test system: RERF-LC-MS;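 further: growth inhibition of human RERF-LC-MS cells, read out by a cell viability assay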
Description: SANGER: Inhibition of human RERF-LC-MS cell growth in a cell viability assay.

NCI-H650 = test system: NCI-H650;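 further: growth inhibition of NCI-H650 cells, read out by a viability assay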
Description: SANGER: Inhibition of human NCI-H650 cell growth in a cell viability assay.

SW1463 = test system: SW1463;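 further: growth inhibition of SW1463 cells, determined with a cell viability assay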
Description: SANGER: Inhibition of human SW1463 cell growth in a cell viability assay.

J82 = test system: J82;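 further: growth inhibition of J82 cells, read out with a cell viability assay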
Description: SANGER: Inhibition of human J82 cell growth in a cell viability assay.

CAL-72 = test system: CAL-72;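 further: cell viability assay measuring inhibition of proliferation in the CAL-72 cell line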
Description: SANGER: Inhibition of human CAL-72 cell growth in a cell viability assay.

LN-405 = test system: LN-405
Description: SANGER: Inhibition of human LN-405 cell growth in a cell viability assay.

BFTC-909 = test system: BFTC-909
Description: SANGER: Inhibition of human BFTC-909 cell growth in a cell viability assay.

MCF7 = test system: MCF7;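 further: growth inhibition of human MCF7 cells, read out with a cell viability assay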
Description: SANGER: Inhibition of human MCF7 cell growth in a cell viability assay.

SK-LU-1 = test system: SK-LU-1;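 further: cell viability assay measuring growth inhibition of human SK-LU-1 cells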
Description: SANGER: Inhibition of human SK-LU-1 cell growth in a cell viability assay.

MDA-MB-453 = test system: MDA-MB-453
Description: SANGER: Inhibition of human MDA-MB-453 cell growth in a cell viability assay.

SW1417 = test system: SW1417;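 further: growth inhibition of human SW1417 cells, read out with a cell viability assay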
Description: SANGER: Inhibition of human SW1417 cell growth in a cell viability assay.

DOK = test system: DOK;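 further: cell viability assay read-out, values reflect inhibition of cell growth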
Description: SANGER: Inhibition of human DOK cell growth in a cell viability assay.

LoVo = test system: LoVo;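 further: growth inhibition of human LoVo cells, read out with a cell viability assay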
Description: SANGER: Inhibition of human LoVo cell growth in a cell viability assay.

SW1573 = test system: SW1573;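 further: growth inhibition of SW1573 cells, read out with a cell viability assay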
Description: SANGER: Inhibition of human SW1573 cell growth in a cell viability assay.

Panc1005 = test system: Panc1005;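 further: growth inhibition of human PANC-10-05 cells, measured by a cell viability assay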
Description: SANGER: Inhibition of human PANC-10-05 cell growth in a cell viability assay.

RD = test system: RD
Description: SANGER: Inhibition of human RD cell growth in a cell viability assay.

HMV-2 cell line = test system: HMV-2 cell line;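 further: growth inhibition of HMV-II cells, read out with a cell viability assay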
Description: SANGER: Inhibition of human HMV-II cell growth in a cell viability assay.

KP-4 = test system: KP-4;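 further: human KP-4 cells, with growth inhibition read out through a cell viability assay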
Description: SANGER: Inhibition of human KP-4 cell growth in a cell viability assay.

CAL-39 = test system: CAL-39;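 further: cell viability assay measuring growth inhibition of CAL-39 cells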
Description: SANGER: Inhibition of human CAL-39 cell growth in a cell viability assay.

Detroit 562 = test system: Detroit 562;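 further: growth inhibition of human Detroit 562 cells, read out by a cell viability assay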
Description: SANGER: Inhibition of human Detroit562 cell growth in a cell viability assay.

NCI-H1573 = test system: NCI-H1573;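 further: growth inhibition of NCI-H1573 cells, read out with a cell viability assay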
Description: SANGER: Inhibition of human NCI-H1573 cell growth in a cell viability assay.

RCM-1 = test system: RCM-1;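 further: growth inhibition of the RCM-1 line, determined with a cell viability readout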
Description: SANGER: Inhibition of human RCM-1 cell growth in a cell viability assay.

NCI-H2087 = test system: NCI-H2087;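 further: growth inhibition determined with a cell viability readout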
Description: SANGER: Inhibition of human NCI-H2087 cell growth in a cell viability assay.

NCI-H28 = test system: NCI-H28;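 further: growth inhibition of human NCI-H28 cells, read out as cell viability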
Description: SANGER: Inhibition of human NCI-H28 cell growth in a cell viability assay.

Huh-7 = test system: Huh-7;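 further: HuH-7 cell growth inhibition, read out with a cell viability assay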
Description: SANGER: Inhibition of human HuH-7 cell growth in a cell viability assay.

SN12C = test system: SN12C;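 further: growth inhibition of human SN12C cells, measured by a cell viability assay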
Description: SANGER: Inhibition of human SN12C cell growth in a cell viability assay.

LCLC-97TM1 = test system: LCLC-97TM1;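 further: cell viability assay measuring growth inhibition of human LCLC-97TM1 cells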
Description: SANGER: Inhibition of human LCLC-97TM1 cell growth in a cell viability assay.

## CC1(C)CCC(c2ccc(Cl)cc2)=C(CN2CCN(c3ccc(C(=O)NS(=O)(=O)c4ccc(N[C@H](CCN5CCOCC5)CSc5ccccc5)c(S(=O)(=O)C(F)(F)F)c4)cc3)CC2)C1 [NAVITOCLAX]
NCI-H810
  IC50: > 2 µM
EFO-21
  IC50: > 2 µM
HN
  IC50: > 2 µM
HSC-2
  IC50: > 2 µM
Daoy
  IC50: > 2 µM
ME-180
  IC50: > 2 µM
HT-29
  IC50: > 2 µM
NCI-H1755
  IC50: > 2 µM
SNU-387
  IC50: > 2 µM
COLO-678
  IC50: > 2 µM
KOSC-2
  IC50: > 2 µM
CAPAN-1
  IC50: > 2 µM
YAPC
  IC50: > 2 µM
ACHN
  IC50: > 2 µM
OAW-28
  IC50: 0.784 µM
SW1710
  IC50: > 2 µM
CAL-51
  IC50: > 2 µM
NCI-H358
  IC50: > 2 µM
RERF-LC-MS
  IC50: > 2 µM
NCI-H650
  IC50: > 2 µM
SW1463
  IC50: > 2 µM
J82
  IC50: > 2 µM
CAL-72
  IC50: > 2 µM
LN-405
  IC50: > 2 µM
BFTC-909
  IC50: > 2 µM
MCF7
  IC50: > 2 µM
SK-LU-1
  IC50: > 2 µM
MDA-MB-453
  IC50: > 2 µM
SW1417
  IC50: 0.554 µM
DOK
  IC50: > 2 µM
LoVo
  IC50: > 2 µM
SW1573
  IC50: > 2 µM
Panc1005
  IC50: > 2 µM
RD
  IC50: 0.759 µM
HMV-2 cell line
  IC50: > 2 µM
KP-4
  IC50: > 2 µM
CAL-39
  IC50: > 2 µM
Detroit 562
  IC50: > 2 µM
NCI-H1573
  IC50: > 2 µM
RCM-1
  IC50: > 2 µM
NCI-H2087
  IC50: > 2 µM
NCI-H28
  IC50: > 2 µM
Huh-7
  IC50: 1.67 µM
SN12C
  IC50: > 2 µM
LCLC-97TM1
  IC50: > 2 µM

## CN(C)CCOc1ccc(-c2nc(-c3ccncc3)c(-c3ccc4c(c3)CC/C4=N\O)[nH]2)cc1 [SB590885]
NCI-H810
  IC50: > 5 µM
EFO-21
  IC50: > 5 µM
HN
  IC50: > 5 µM
HSC-2
  IC50: > 5 µM
Daoy
  IC50: > 5 µM
ME-180
  IC50: > 5 µM
HT-29
  IC50: > 5 µM
NCI-H1755
  IC50: > 5 µM
SNU-387
  IC50: > 5 µM
COLO-678
  IC50: > 5 µM
KOSC-2
  IC50: > 5 µM
CAPAN-1
  IC50: > 5 µM
YAPC
  IC50: > 5 µM
OAW-28
  IC50: > 5 µM
SW1710
  IC50: > 5 µM
CAL-51
  IC50: > 5 µM
RERF-LC-MS
  IC50: > 5 µM
NCI-H650
  IC50: > 5 µM
SW1463
  IC50: > 5 µM
CAL-72
  IC50: > 5 µM
LN-405
  IC50: > 5 µM
BFTC-909
  IC50: > 5 µM
MCF7
  IC50: > 5 µM
SK-LU-1
  IC50: > 5 µM
MDA-MB-453
  IC50: > 5 µM
SW1417
  IC50: > 5 µM
DOK
  IC50: > 5 µM
LoVo
  IC50: > 5 µM
SW1573
  IC50: > 5 µM
Panc1005
  IC50: > 5 µM
RD
  IC50: > 5 µM
CAL-39
  IC50: > 5 µM
Detroit 562
  IC50: > 5 µM
NCI-H1573
  IC50: > 5 µM
RCM-1
  IC50: > 5 µM
NCI-H2087
  IC50: > 5 µM
NCI-H28
  IC50: > 5 µM
Huh-7
  IC50: 3.67 µM
SN12C
  IC50: > 5 µM
LCLC-97TM1
  IC50: > 5 µM

## CS(=O)(=O)N1CCN(Cc2cc3nc(-c4cccc5[nH]ncc45)nc(N4CCOCC4)c3s2)CC1 [PICTILISIB]
NCI-H810
  IC50: > 4 µM
EFO-21
  IC50: > 4 µM
HN
  IC50: 3.07 µM
HSC-2
  IC50: > 4 µM
Daoy
  IC50: > 4 µM
ME-180
  IC50: 1.93 µM
HT-29
  IC50: > 4 µM
NCI-H1755
  IC50: > 4 µM
SNU-387
  IC50: 3.16 µM
COLO-678
  IC50: > 4 µM
KOSC-2
  IC50: > 4 µM
CAPAN-1
  IC50: > 4 µM
YAPC
  IC50: > 4 µM
ACHN
  IC50: > 4 µM
OAW-28
  IC50: > 4 µM
SW1710
  IC50: 1.04 µM
CAL-51
  IC50: > 4 µM
NCI-H358
  IC50: > 4 µM
RERF-LC-MS
  IC50: > 4 µM
NCI-H650
  IC50: > 4 µM
SW1463
  IC50: > 4 µM
J82
  IC50: > 4 µM
CAL-72
  IC50: > 4 µM
LN-405
  IC50: > 4 µM
BFTC-909
  IC50: 1.43 µM
MCF7
  IC50: 0.899 µM
SK-LU-1
  IC50: 2.45 µM
MDA-MB-453
  IC50: > 4 µM
SW1417
  IC50: > 4 µM
DOK
  IC50: 0.302 µM
LoVo
  IC50: 0.778 µM
SW1573
  IC50: 3.75 µM
Panc1005
  IC50: > 4 µM
RD
  IC50: > 4 µM
KP-4
  IC50: > 4 µM
CAL-39
  IC50: 2.03 µM
Detroit 562
  IC50: > 4 µM
NCI-H1573
  IC50: > 4 µM
RCM-1
  IC50: > 4 µM
NCI-H2087
  IC50: > 4 µM
NCI-H28
  IC50: 3.05 µM
Huh-7
  IC50: 1.21 µM
SN12C
  IC50: > 4 µM
LCLC-97TM1
  IC50: 2.69 µM

## NC1(c2ccc(-c3nc4ccn5c(=O)[nH]nc5c4cc3-c3ccccc3)cc2)CCC1 [MK-2206]
NCI-H810
  IC50: > 4 µM
EFO-21
  IC50: > 4 µM
HN
  IC50: > 4 µM
HSC-2
  IC50: > 4 µM
Daoy
  IC50: > 4 µM
ME-180
  IC50: 1.57 µM
HT-29
  IC50: > 4 µM
NCI-H1755
  IC50: > 4 µM
SNU-387
  IC50: 1.88 µM
COLO-678
  IC50: > 4 µM
KOSC-2
  IC50: > 4 µM
CAPAN-1
  IC50: > 4 µM
YAPC
  IC50: > 4 µM
OAW-28
  IC50: 2.3 µM
SW1710
  IC50: 3.47 µM
CAL-51
  IC50: > 4 µM
RERF-LC-MS
  IC50: > 4 µM
NCI-H650
  IC50: > 4 µM
SW1463
  IC50: > 4 µM
CAL-72
  IC50: > 4 µM
LN-405
  IC50: > 4 µM
BFTC-909
  IC50: > 4 µM
MCF7
  IC50: 2.86 µM
SK-LU-1
  IC50: > 4 µM
MDA-MB-453
  IC50: > 4 µM
SW1417
  IC50: > 4 µM
DOK
  IC50: 3.23 µM
LoVo
  IC50: 1.33 µM
SW1573
  IC50: > 4 µM
Panc1005
  IC50: > 4 µM
RD
  IC50: > 4 µM
CAL-39
  IC50: > 4 µM
Detroit 562
  IC50: > 4 µM
NCI-H1573
  IC50: > 4 µM
RCM-1
  IC50: > 4 µM
NCI-H2087
  IC50: > 4 µM
NCI-H28
  IC50: > 4 µM
Huh-7
  IC50: 3.09 µM
SN12C
  IC50: > 4 µM
LCLC-97TM1
  IC50: > 4 µM
